Experimental data published in patent US20060051868A1, “Methods for increasing conifer somatic embryo initiation, capture, and multiplication” (priority 2001, published 2006).

Assays:
[1] = system: Loblolly pine embryogenic cultures; experiment: Growth of Loblolly pine embryogenic cultures from single somatic embryos (tissue diameter, area); type: cell-based; settings: for Diameter of tissue (mm) / Approximate tissue area (mm^2): four weeks; for Diameter of tissue (mm): control 4.01; for Approximate tissue area (mm^2): control 12.6
Method: Three previously initiated Loblolly pine embryogenic cultures, each representing a different genotype, were grown in liquid media #1133, used as starting material for embryogenic cultures on various treatment media. Using a dissecting scope, individual stage 2 somatic embryos were extracted and placed on treatment media in the center of individual wells on a well plate. Forty embryos were prepared per treatment media, per genotype. Well plates were wrapped in Parafilm® and cultured under standard conditions at room temperature in the dark for four weeks. Embryogenic cultures derived from the single isolated embryos proliferated and spread over the surface of the culture medium. Spreading cultures were roughly circular in shape, radiating from the central embryo. At the end of four weeks, the growth of each culture was measured by measuring colony diameter using a dissecting scope ocular micrometer. Five treatment media were compared to control media #1043 (Table 21). Three media consisted of #1043 supplemented with paclobutrazol at concentrations of 0.33, 1.0 and 3.0 ppm. A B-vitamin treatment contained biotin at 0.05 ppm and folic acid at 0.5 ppm. […] The pH of media containing four different concentrations of MES was compared to that of a non-buffered control media during eight weeks of embryogenic culture growth. Maintenance cultures were established on treatment media using single isolated somatic embryos. Maintenance cultures were prepared and cultured essentially as described in Example 5. The control media was #1043. (See Table 21). The treatment media consisted of #1043 supplemented with 250, 500, 1000 and 1500 mg/l MES. Media pH was adjusted to 5.7 within all treatments prior to autoclaving, pouring and solidification. Immediately after pouring the media, and thereafter at two week intervals, media pH was measured up to the eighth week of culture growth. At each sampling time, four cultures from each media-genotype treatment were destructively sampled to measure the pH of the media directly underlying the growing embryogenic tissue. This experiment measured the effects of ABA, vitamins, culturing in a closed container, and culturing at increased atmospheric pressure on the growth of embryogenic cultures. Maintenance cultures were prepared on well plates using single somatic embryos, essentially as described in Example 5.

[2] = system: Loblolly pine megagametophytes; experiment: Initiation frequency of embryogenic cultures from Loblolly pine megagametophyte explants; type: cell-based
Method: Explants were megagametophytes isolated from Loblolly pine summer cones when embryos were at approximately stage 2-4. Seeds were. collected from four individual trees of diverse genotypes. Extracted seeds were soaked in running water for 10 minutes, agitated in 10% liquinox supplemented with 1.1 ml/l of Tween 20 for 10 minutes, and rinsed with water for 30 minutes. Seeds were sterilized in a laminar flow hood by agitating in 20% hydrogen peroxide for 10 minutes and rinsing with sterile deionized water. The seed coat, integuments, and nucellus were removed to isolate the megagametophytes. Culturing was performed in 24-well multi-well culture plates with each well having an approximate volume of 3.0 ml. Two ml of media was poured into each well.
Each replication consisted of eight adjacent wells on a multi-well plate, with one megagametophyte per well, providing three replications per multi-well plate. Twelve replications (for a total of 96 explants) were performed per treatment for each cone collection. The well plates were wrapped in Parafilm®, elastic wrap to minimize evaporation and incubated at 22-24° C. under dark conditions for nine weeks. Initiation frequency was scored for each dish by counting the number of explants which had successfully initiated embryogenic cultures.
The media treatments consisted of: (1) a control media #1043 (see Table 21); (2) media #1218, comprising media #1043 supplemented with 250 mg/l MES buffer; (3) media #1043 supplemented with 0.5 ppm folic acid and 0.05 ppm biotin; and (4) media #1218 supplemented with 0.5 ppm folic acid and 0.05 ppm biotin.
A representative procedure is shown for Loblolly pine. Experimental procedure follow similarly for other conifer but differ slightly in the composition of media used. […] Here, however, each treatment-genotype test consisted of ten replications of ten explants.
The cultures were covered and incubated in the dark at 24-26° C. for nine weeks.
Explants from four Loblolly pine cone collections were prepared and cultured as described in Example 2. The media treatments consisted of control media, #1218, which is media #1043 supplemented. with 250 mg/l MES, and four treatment media, which consist of media #1218 supplemented with 0.33, 1.0, 2.0, and 3.0 ppm paclobutrazol, respectively.
Four cone collections with embryos at stages 2-4 were used. Eighty explants from each cone collection on each media were tested. Seeds were removed from cones and soaked in running water for 10 min. Seeds were then agitated in 10% liquinox containing 1.1 ml/l Tween 20 for 10 min., and then rinsed with running tap water for 30 min. After transferring to a sterile hood, seeds were agitated in 20% H2O2 for 10 min., rinsed with sterile nanopure® H2O five times for 5 to 10 min. intervals, and then placed into a sterile petri dish for dissection. Seeds were dissected by splitting the seed coat, removing the integuments and nucellus. The megagametophyte was placed onto the appropriate medium. Each multi-well test plate contained 2 ml of solid media. Plates were incubated in the dark for 8 weeks and then scored.
The control media, media #1253, is described in detail in Table 16. All test media, #1275, #1421, #1422, and #1423 were comprised of the control media with the addition of a gibberellin inhibitor.

## CC(C)(C)[C@@H](O)[C@@H](Cc1ccc(Cl)cc1)n1cncn1 (racemic) [paclobutrazol]
[1]; 0.33 ppm in media #1043
  Diameter of tissue (mm): 4.13 mm
  Approximate tissue area (mm^2): 13.4 mm^2
[1]; 1.0 ppm in media #1043
  Diameter of tissue (mm): 5.00 mm
  Approximate tissue area (mm^2): 19.6 mm^2
[1]; 3.0 ppm in media #1043
  Diameter of tissue (mm): 5.23 mm
  Approximate tissue area (mm^2): 21.5 mm^2
[2]; 0.33 ppm in buffered media #1218 (Media 1043 + 250 mg/l MES), control 40.5
  Initiation Frequency (%): 46.8%
[2]; 0.33 ppm in media #1043, nine weeks, control 39.1
  Initiation Frequency (%): 37.3%
[2]; 1.0 ppm in buffered media #1218 (Media 1043 + 250 mg/l MES), control 40.5
  Initiation Frequency (%): 46.0%
[2]; 2.0 ppm in buffered media #1218 (Media 1043 + 250 mg/l MES), control 40.5
  Initiation Frequency (%): 46.1%
[2]; 3.0 ppm in buffered media #1218 (Media 1043 + 250 mg/l MES), control 40.5
  Initiation Frequency (%): 44.7%
[2]; base media #1253, 1.0 ppm paclobutrazol, 0.1062 ppm flurprimidol, 1.58 ppm chlormequat-Cl, 0.16 ppm succinic acid-dh, 8 weeks, dark, control 29.5
  Initiation Frequency (%): 35.3%
[2]; base media #1253, 1.0 ppm paclobutrazol, 0.1062 ppm flurprimidol, 1.58 ppm chlormequat-Cl, 0.16 ppm succinic acid-dh, 8 weeks, dark, control 58.6
  Extrusion (%): 58.1%

## O=S(=O)(O)CCN1CCOCC1 [MES, 2-(N-morpholino)-ethanesulfonic acid]
[1]; 250 mg/l MES in media #1043
  Growth of cultures, as measured by culture diameter, relative to the control: increased
[1]; higher concentrations of MES (500, 1000, 1500 mg/l) in media #1043
  Growth of cultures, as measured by culture diameter, relative to the control: inhibited
[2]; base media #1043, MES 250 mg/l, vitamins = 0.5 ppm folic acid + 0.05 ppm biotin, nine weeks, dark, control 42.9
  Initiation Frequency (%): 47.7%
